Test results reported in US20260022112A1, “NOVEL CO-CRYSTAL OF ENAVOGLIFLOZIN” (DAEWOONG PHARMACEUTICAL CO., LTD., priority 2022, published 2026).
≈ marks a conversion by molar mass, not a printed value. Where two headings read alike, the source gives them in different places.

Tests used:
[1] = Solubility in artificial gastric fluid (FaSSGF); assay type: physicochemical; conditions: fassgf or other biorelevant, thermodynamic from solid
[2] = Solubility in artificial intestinal fluid (FaSSIF); assay type: physicochemical; conditions: thermodynamic from solid
[3] = Stress stability evaluation, 60° C., 4 weeks, HPLC; assay type: physicochemical
[4] = Pharmacokinetic evaluation in beagle dogs; assay type: in vivo; conditions: plasma, 1 mg/kg
Protocol: A test was conducted to confirm whether the pharmacokinetic profiles of enavogliflozin/proline co-crystals were improved in beagle dogs. Each of the crystalline form A of enavogliflozin and the proline co-crystal was orally administered at a dose of 1 mg/kg to male beagle dogs by setting the crystalline form A of enavogliflozin as a control and the proline co-crystal as a comparative group, and blood collection was conducted before administration (0 hour), and for 0.083, 0.25, 0.5, 0.75, 1, 1.5, 2, 4, 6, 8, 12, and 24 hours (a total of 13 times). Blood drug concentrations were analyzed by LC-MS/MS using plasma separated from the collected samples, and pharmacokinetic parameters such as the maximum observed plasma concentration (Cmax), an area under the plasma concentration-time curve (AUClast and AUCinf), a time-to-maximum observed plasma concentration (Tmax), and a half-life (T1/2) were calculated and interpreted using the WinNonlin 5.0.1 program.

[5] = crystalline form of Patent Document 2; cited from earlier work

## OC[C@H]1O[C@@H](c2cc(Cc3ccc(C4CC4)cc3)c(Cl)c3c2CCO3)[C@H](O)[C@@H](O)[C@@H]1O [Crystalline form A of enavogliflozin, enavogliflozin]
[1]; 30 minutes
  solubility at 30 min: 310 µg/mL (≈ 694 µM)
[1]; 1 hour
  solubility at 1 h: 340 µg/mL (≈ 761 µM)
[1]; 2 hours
  solubility at 2 h: 350 µg/mL (≈ 783 µM)
[1]; 4 hours
  solubility at 4 h: 350 µg/mL (≈ 783 µM)
[2]; 30 minutes
  solubility at 30 min: 690 µg/mL (≈ 1540 µM)
[2]; 1 hour
  solubility at 1 h: 940 µg/mL (≈ 2100 µM)
[2]; 2 hours
  solubility at 2 h: 1000 µg/mL (≈ 2240 µM)
[2]; 4 hours
  solubility at 4 h: 920 µg/mL (≈ 2060 µM)
[2]; Initial
  solubility at 0 h: 10000 µg/mL (≈ 22400 µM)
[3]; 2 weeks, listed as Crystalline form of enavogliflozin
  Purity (HPLC) in stress stability evaluation: 98.8%
[3]; 4 weeks, listed as Crystalline form of enavogliflozin
  Purity (HPLC) in stress stability evaluation: 99.1%
[3]; Initial, listed as Crystalline form of enavogliflozin
  Purity (HPLC) in stress stability evaluation: 99.1%
[4]; male, beagle, dog, po
  AUC(0-inf): 4640 ng·h/mL
  AUC(0-t): 4340 ng·h/mL
  half-life: 5.32 h
[4]; male, beagle, dog, po, read-out: Cmax
  Cmax: 482 ng/mL
[4]; male, beagle, dog, po, read-out: Tmax
  Tmax: 4 h

## OC[C@H]1O[C@@H](c2cc(Cc3ccc(C4CC4)cc3)c(Cl)c3c2CCO3)[C@H](O)[C@@H](O)[C@@H]1O [Enavogliflozin/proline co-crystal]
[3]; 2 weeks
  Purity (HPLC) in stress stability evaluation: 99.9%
[3]; 4 weeks
  Purity (HPLC) in stress stability evaluation: 99.8%
  Thermal stability compared with crystalline form of enavogliflozin: equivalent to that of the crystalline form of enavogliflozin
[3]; Initial
  Purity (HPLC) in stress stability evaluation: 99.9%
[4]; male beagle dogs, oral
  AUCinf: 5341.58 ng·h/mL
  AUClast: 4428.20 ng·h/mL
  Cmax: 482.60 ng/mL
  T1/2: 6.10 h
  Tmax: 5.20 h

## OC[C@H]1O[C@@H](c2cc(Cc3ccc(C4CC4)cc3)c(Cl)c3c2CCO3)[C@H](O)[C@@H](O)[C@@H]1O [enavogliflozin]
[5]
  Solubility (water solubility): 250 µg/mL (≈ 559 µM)
